Measurements taken from patent US4559323A, “A41030 Antibiotics” (Eli Lilly and Company, priority 1984, dated 1985).
Converted amounts (≈) assume the structure as drawn. Where two headings read alike, the source gives them in different places.

Assays:
Hemophilus influenzae = assay: Agar-dilution MIC; assay type: cell-based; details: 24 hours
Clostridium perfringens = assay type: cell-based; details: Table 14; Clostridium perfringens 81
Peptococcus prevoti = assay: Agar-dilution MIC (anaerobes); assay type: cell-based
[1] = test system: Fusobacterium necrophorum; assay: Agar-dilution MIC (anaerobes); assay type: cell-based; details: Table 14; Fusobacterium necrophorum 6054A
Clostridium difficile [2] = assay type: cell-based; details: Table 14; Clostridium difficile 2994
Clostridium difficile [3] = assay type: cell-based; details: Table 16
Excerpt: The A41030 antibiotic factors A, B, C, D, E, F, and G, are also active against a number of strains of Clostridium difficile, as determined by the agar-dilution method.

B. thetaiotaomicron = assay type: cell-based
Excerpt: (§1) The agar-dilution procedure described by the International Collaborative study (ICS) group was used to determine the minimum inhibitory concentrations (MIC's).

Solubility in solvents = assay type: physicochemical; details: solvents as named
Excerpt: The seven antibiotic factors are recovered from the fermentation and are obtained as a mixture, the A41030 complex. It will be recognized that the ratio of the factors in the A41030 complex will vary, depending upon the fermentation conditions used. The individual factors […], and G are separated and isolated as individual compounds, as hereinafter described.

Bacteroides vulgatis [4] = assay: Agar-dilution MIC (anaerobes); assay type: cell-based; details: Table 12; 24-hour; B. vulgatis 1563
Excerpt: (§2) The A41030 antibiotics, factors A, B, and C, are active against a genus of anaerobic bacteria identified as Bacteroides sp., the 24-hour MIC values being determined by the agar-dilution method, and are set forth in Table 12, which follows.

Bacteroides corrodens [5] = assay: Agar-dilution MIC (anaerobes); assay type: cell-based; details: Table 12; 24-hour; B. corrodens 1874
Excerpt: as §2

Salmonella typhi = assay: Agar-dilution MIC; assay type: cell-based; details: Table 17, 24 hours
Bacteroides vulgatis [6] = assay: Agar-dilution MIC (anaerobes); assay type: cell-based; details: Table 14; Bacteroides vulgatis 1211
Clostridium septicum = assay: Agar-dilution MIC (anaerobes); assay type: cell-based; details: Table 14; Clostridium septicum 1128
Streptococcus pyogenes = assay: Agar-dilution MIC; assay type: cell-based; details: 24 hours, Streptococcus pyogenes C203
Excerpt: as §1

[7] = test system: Streptococcus sp. (Group D); assay: Agar-dilution MIC; assay type: cell-based; details: 24 hours
Excerpt: as §1

[8] = test system: Peptostreptococcus anaerobius; assay: Agar-dilution MIC (anaerobes); assay type: cell-based
Bacteroides corrodens [9] = assay: Agar-dilution MIC (anaerobes); assay type: cell-based; details: Table 14; Bacteroides corrodens 1874
Staph. aureus = assay: Experimental bacterial infection in mice, subcutaneous ED50; assay type: in vivo; details: two doses subcutaneously
Method: (§3) All of the A41030 factors tested have shown in vivo antimicrobial activity against experimental bacterial infections. When two doses of test compound were administered subcutaneously to mice in illustrative infections, the activity observed is measured as an ED50 value [effective dose in mg./kg. to protect fifty percent of the test animals: See Warren Wick, et al., J. Bacteriol. 81, 233-235 (1961)].

S. pyogenes [10] = assay: as above; assay type: in vivo; details: two doses subcutaneously
Method: as §3

S. pneumoniae = assay: as above; assay type: in vivo; details: two doses subcutaneously
Method: as §3

Fusobacterium symbiosum = assay: Agar-dilution MIC (anaerobes); assay type: cell-based; details: Table 14; Fusobacterium symbiosum 1470
[11] = test system: Peptostreptococcus intermedius; assay: Agar-dilution MIC (anaerobes); assay type: cell-based
[12] = Electrometric titration (pKa); assay type: physicochemical; details: electrometric titration in 66% dimethylformamide in water
[13] = test system: Bacteroides melaninogenicus; assay: Agar-dilution MIC (anaerobes); assay type: cell-based; details: Table 14; Bacteroides melaninogenicus 2736
S. pyogenes [14] = assay: In vivo oral activity against S. pyogenes in mice

## N[C@H]1C(=O)N[C@@H]2Cc3ccc(c(Cl)c3)Oc3cc4cc(c3O)Oc3ccc(cc3Cl)[C@@H](O)[C@@H]3NC(=O)C(NC(=O)[C@@H]4NC(=O)[C@@H](NC2=O)c2cc(O)cc(c2)Oc2cc1ccc2O)c1ccc(O)c(c1)-c1c(O)cc(O)cc1[C@@H](C(=O)O)NC3=O [A41030 factor B]
Hemophilus influenzae; Table 17, Haemophilus influenzae 251
  MIC: 2 µg/mL (≈ 1.67 µM)
Hemophilus influenzae; Table 17, Haemophilus influenzae Brun
  MIC: 8 µg/mL (≈ 6.67 µM)
Hemophilus influenzae; Table 18, Haemophilus influenzae 76
  MIC: 4 µg/mL (≈ 3.34 µM)
Hemophilus influenzae; Table 18, Haemophilus influenzae 312
  MIC: 4 µg/mL (≈ 3.34 µM)
Hemophilus influenzae; Table 18, Haemophilus influenzae 4842
  MIC: 4 µg/mL (≈ 3.34 µM)
Hemophilus influenzae; Table 18, Haemophilus influenzae 16836
  MIC: 4 µg/mL (≈ 3.34 µM)
Hemophilus influenzae; Table 18, Haemophilus influenzae Bond
  MIC: 4 µg/mL (≈ 3.34 µM)
Hemophilus influenzae; Table 18, Haemophilus influenzae C.L.
  MIC: 8 µg/mL (≈ 6.67 µM)
Hemophilus influenzae; Table 18, Haemophilus influenzae Mx366
  MIC: 4 µg/mL (≈ 3.34 µM)
Hemophilus influenzae; Table 18, Haemophilus influenzae Mx371
  MIC: 4 µg/mL (≈ 3.34 µM)
Clostridium perfringens
  MIC: 0.5 µg/mL (≈ 0.417 µM)
Peptococcus prevoti; Table 14, Peptococcus prevoti 1281
  MIC: ≤ 0.25 µg/mL
Peptococcus prevoti; Table 15, Pc. prevoti 1281
  MIC: 0.5 µg/mL (≈ 0.417 µM)
Peptococcus prevoti; Table 15, Pc. prevoti 1293
  MIC: 0.25 µg/mL (≈ 0.209 µM)
Peptococcus prevoti; Table 15, Pc. prevoti 1407
  MIC: 0.5 µg/mL (≈ 0.417 µM)
[1]
  MIC: 8 µg/mL (≈ 6.67 µM)
Clostridium difficile [2]
  MIC: 32 µg/mL (≈ 26.7 µM)
Clostridium difficile [3]; C. difficile 78
  MIC: 0.5 µg/mL (≈ 0.417 µM)
Clostridium difficile [3]; C. difficile 107B
  MIC: 0.5 µg/mL (≈ 0.417 µM)
Clostridium difficile [3]; C. difficile 111F
  MIC: 1.0 µg/mL (≈ 0.834 µM)
Clostridium difficile [3]; C. difficile 1153
  MIC: 1.0 µg/mL (≈ 0.834 µM)
Clostridium difficile [3]; C. difficile 2634
  MIC: 1.0 µg/mL (≈ 0.834 µM)
Clostridium difficile [3]; C. difficile 3424-5B
  MIC: 1.0 µg/mL (≈ 0.834 µM)
Clostridium difficile [3]; C. difficile 3816
  MIC: 1.0 µg/mL (≈ 0.834 µM)
Clostridium difficile [3]; C. difficile 3950
  MIC: 1.0 µg/mL (≈ 0.834 µM)
Clostridium difficile [3]; C. difficile 6890
  MIC: 1.0 µg/mL (≈ 0.834 µM)
Clostridium difficile [3]; C. difficile 8484
  MIC: 1.0 µg/mL (≈ 0.834 µM)
Clostridium difficile [3]; C. difficile A-194
  MIC: 1.0 µg/mL (≈ 0.834 µM)
Clostridium difficile [3]; C. difficile A-195
  MIC: 1.0 µg/mL (≈ 0.834 µM)
Clostridium difficile [3]; C. difficile A-196
  MIC: 1.0 µg/mL (≈ 0.834 µM)
Clostridium difficile [3]; C. difficile A-279
  MIC: 1.0 µg/mL (≈ 0.834 µM)
Clostridium difficile [3]; C. difficile A-280
  MIC: 0.5 µg/mL (≈ 0.417 µM)
Clostridium difficile [3]; C. difficile A-281
  MIC: 1.0 µg/mL (≈ 0.834 µM)
Clostridium difficile [3]; C. difficile WAL-2112
  MIC: 1.0 µg/mL (≈ 0.834 µM)
Clostridium difficile [3]; C. difficile WAL-3657
  MIC: 1.0 µg/mL (≈ 0.834 µM)
Clostridium difficile [3]; C. difficile WAL-4268
  MIC: 0.5 µg/mL (≈ 0.417 µM)
B. thetaiotaomicron; Table 12, 24-hour, B. thetaiotaomicron 1438
  MIC: 32 µg/mL (≈ 26.7 µM)
B. thetaiotaomicron; Table 12, 24-hour, B. thetaiotaomicron 1900A
  MIC: 128 µg/mL (≈ 107 µM)
B. thetaiotaomicron; Table 14, Bacteroides thetalotaomicron 1438
  MIC: 32 µg/mL (≈ 26.7 µM)
Solubility in solvents
  Solubility: soluble in the same solvents as factor A
Bacteroides vulgatis [4]
  MIC: 32 µg/mL (≈ 26.7 µM)
Bacteroides corrodens [5]
  MIC: 32 µg/mL (≈ 26.7 µM)
Salmonella typhi; Salmonella typhi 1335
  MIC: > 128 µg/mL
Salmonella typhi; Salmonella typhi X514
  MIC: > 128 µg/mL
Bacteroides vulgatis [6]
  MIC: 32 µg/mL (≈ 26.7 µM)
Clostridium septicum
  MIC: 4 µg/mL (≈ 3.34 µM)
Streptococcus pyogenes; Table 17
  MIC: 0.25 µg/mL (≈ 0.209 µM)
Streptococcus pyogenes; Table 18
  MIC: 0.125 µg/mL (≈ 0.104 µM)
[7]; Table 17, Streptococcus sp. Group D 9960
  MIC: 1 µg/mL (≈ 0.834 µM)
[7]; Table 17, Streptococcus sp. Group D X66
  MIC: 1 µg/mL (≈ 0.834 µM)
[7]; Table 18, Streptococcus sp. Group D 2041
  MIC: 0.5 µg/mL (≈ 0.417 µM)
[7]; Table 18, Streptococcus sp. Group D 2058
  MIC: 0.5 µg/mL (≈ 0.417 µM)
[7]; Table 18, Streptococcus sp. Group D 8043
  MIC: 0.25 µg/mL (≈ 0.209 µM)
[7]; Table 18, Streptococcus sp. Group D 9901
  MIC: 1 µg/mL (≈ 0.834 µM)
[7]; Table 18, Streptococcus sp. Group D 9960
  MIC: 0.5 µg/mL (≈ 0.417 µM)
[7]; Table 18, Streptococcus sp. Group D 12253F
  MIC: 0.5 µg/mL (≈ 0.417 µM)
[7]; Table 18, Streptococcus sp. Group D Mx161
  MIC: 0.25 µg/mL (≈ 0.209 µM)
[7]; Table 18, Streptococcus sp. Group D X66
  MIC: 0.25 µg/mL (≈ 0.209 µM)
[8]; Table 14, Peptostreptococcus anaerobius 1428
  MIC: ≤ 0.25 µg/mL
[8]; Table 15, Ps. anaerobius 8
  MIC: 0.25 µg/mL (≈ 0.209 µM)
[8]; Table 15, Ps. anaerobius 52
  MIC: 0.5 µg/mL (≈ 0.417 µM)
[8]; Table 15, Ps. anaerobius 59
  MIC: 0.25 µg/mL (≈ 0.209 µM)
[8]; Table 15, Ps. anaerobius 1418
  MIC: 0.06 µg/mL (≈ 0.05 µM)
[8]; Table 15, Ps. anaerobius 1428
  MIC: 0.25 µg/mL (≈ 0.209 µM)
[8]; Table 15, Ps. anaerobius 1451
  MIC: 0.25 µg/mL (≈ 0.209 µM)
[8]; Table 15, Ps. anaerobius 1477
  MIC: 0.125 µg/mL (≈ 0.104 µM)
Bacteroides corrodens [9]
  MIC: 64 µg/mL (≈ 53.4 µM)
Staph. aureus
  ED50: < 0.43 mg/kg
S. pyogenes [10]
  ED50: 1.4 mg/kg
S. pneumoniae
  ED50: 1.4 mg/kg
Fusobacterium symbiosum
  MIC: 1.0 µg/mL (≈ 0.834 µM)
[11]; Table 14, Peptostreptococcus intermedius 1264
  MIC: 0.5 µg/mL (≈ 0.417 µM)
[11]; Table 15, Ps. intermedius 1264
  MIC: ≤ 0.03 µg/mL
[11]; Table 15, Ps. intermedius 1524
  MIC: 0.25 µg/mL (≈ 0.209 µM)
[11]; Table 15, Ps. intermedius 1624
  MIC: 0.5 µg/mL (≈ 0.417 µM)
[12]
  pKa, first titratable group: about 5.6
  pKa, second titratable group: ~7.5
[13]
  MIC: 4 µg/mL (≈ 3.34 µM)
S. pyogenes [14]
  in vivo oral activity: > 300 mg./kg.X2
